In patent US11485657B2, “Biological remediation of groundwater using an algal photobioreactor system” (priority 2019, dated 2022):

Test system: C. subellipsoidea
Assay: Paraoxon hydrolysis in C. subellipsoidea cultures assayed by p-nitrophenol production (absorbance 408 nm)
Type: cell-based, Coccomyxa subellipsoidea
Conditions: for hydrolysis of paraoxon into p-nitrophenol with oligomycin and rotenone in the dark: oligomycin 20 μg/mL and rotenone 20 μg/mL together, samples at 12 h, 24 h, 48 h

Compound | effect on paraoxon hydrolysis, DCMU and paraoxon in the light (actively growing cultures, light) | production of p-nitrophenol from paraoxon in the presence of DCMU (paraoxon 0.25 mg/mL, 12 h, light, versus absence of DCMU) | hydrolysis of paraoxon into p-nitrophenol with oligomycin and rotenone in the dark (paraoxon 0.25 mg/mL)
CN(C)C(=O)Nc1ccc(Cl)c(Cl)c1 [DCMU, 3-(3,4-dichlorophenyl)-1,1-dimethylurea] | blocked hydrolysis | decreased nearly two-fold | –
CC[C@H]1/C=C/C=C/C[C@@H](C)[C@H](O)[C@@](C)(O)C(=O)[C@@H](C)[C@H](O)[C@@H](C)C(=O)[C@@H](C)[C@H](O)[C@@H](C)/C=C/C(=O)O[C@@H]2[C@H](C)[C@H](CC1)O[C@]1(CC[C@H](C)[C@H](C[C@@H](C)O)O1)[C@H]2C [oligomycin] | – | – | not hydrolyzed
C=C(C)[C@H]1Cc2c(ccc3c2O[C@@H]2COc4cc(OC)c(OC)cc4[C@@H]2C3=O)O1 [rotenone] | – | – | not hydrolyzed
